The target of test [1] is T1, biotinylated KRAS protein containing G12C/C51S/C80L/C118S mutations (SEQ ID NO: 3) (Homo sapiens, UniProt P01116, C118S/C51S/C80L/G12C).
T1 construct: biotin acceptor peptide (Avi-type, […]
The test is described as follows: Test Example 4: SOS-catalyzed nucleotide exchange assay (TR-FRET). It is filed as biochemical. The conditions noted are these: 60-minute incubation with compound, then SOS and GTP, read-out: GNE IC50. As for the experimental part: Test Example 4: Procedure for SOS-Catalyzed Nucleotide Exchange Assay
The SOS-catalyzed nucleotide exchange assay utilizes a preformed complex of recombinant biotinylated KRAS protein containing G12C/C51S/C80L/C118S mutations (SEQ ID NO: 3) (referred to as Biotinylated KRAS G12C protein hereafter), Bodipy-GDP, and Terbium-streptavidin. Compounds are added to this complex and then after a 60-minute incubation time the mixture is treated with SOS and unlabeled GTP. Small molecule inhibitors stabilize the Bodipy-GDP complex whereas the untreated protein rapidly exchanges Bodipy-GDP for unlabeled GTP resulting in reduced TR-FRET signal.
Biotinylated KRAS G12C protein is diluted to 2 μM in an EDTA buffer (20 mM HEPES, 50 mM sodium chloride, 10 mM EDTA, and 0.01% Tween) and incubated at room temperature for one hour. This mixture is then further diluted to 90 nM in an assay buffer (20 mM HEPES, 150 mM sodium chloride, 10 mM magnesium chloride, and 0.005% Tween) containing 15 nM of Terbium-Streptavidin (Invitrogen, catalog #PV3577) and 900 nM of Bodipy-GDP (Invitrogen, G22360) and incubated at room temperature for six hours. This solution is referred to as Biotinylated KRAS G12C stock solution and is then diluted to 9 nM in assay buffer to give the KRAS G12C assay solution.
Each test compound (10 mM stock in DMSO) is diluted in DMSO to make a 10-point, 3-fold dilution series in a 384-well low dead volume microplate (Labcyte, catalog #LP-0200). Once titrations are made, 10 nL of the diluted compounds is acoustically dispensed into a 384-well plate (Corning, catalog #3820) using an Echo 550 (Labcyte).
Each well receives 6 μL of Biotinylated KRAS G12C assay solution using a BioRAPTR (Beckman Coulter) and is incubated at room temperature for 60 minutes in a humidified chamber. Each well then receives 3 μL of 120 nM recombinant human SOS protein and 9 mM GTP (Sigma, G8877) in assay buffer and is incubated at room temperature for 60 minutes in a humidified chamber.
The time-resolved fluorescence resonance energy transfer signal of both plates is measured on an Envision (PerkinElmer) plate reader: Excitation filter=340 nm; emission 1=495 nm; emission 2=520 nm; dichroic mirror=D400/D505; delay time=100 μs. The signal of each well is determined as the ratio of the emission at 520 nm to that at 495 nm. Percent effect of each well is determined after normalization to control wells containing DMSO (no effect) or a saturating concentration of inhibitor (max effect). The apparent effect as a function of compound concentration is fit to a four-parameter logistic equation.

In test [2] the target is T2, Biotinylated KRAS G12C protein and GST-tagged Ras binding domain of c-RAF (Homo sapiens, UniProt P01116, C118S/C51S/C80L/G12C).
T2 construct: biotin acceptor peptide (Avi-type, […]
T2 sequence (P01116 with tags, fused parts or gaps isoform P01116-2 G12C/C51S/C80L/C118S): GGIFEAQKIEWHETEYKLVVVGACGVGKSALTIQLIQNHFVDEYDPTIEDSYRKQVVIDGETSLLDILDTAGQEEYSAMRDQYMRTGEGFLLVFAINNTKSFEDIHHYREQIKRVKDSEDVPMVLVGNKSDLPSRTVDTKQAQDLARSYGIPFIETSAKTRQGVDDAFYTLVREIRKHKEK
The test is described as follows: Test Example 5: RAS:RAF-RBD binding assay (TR-FRET). The conditions noted are these: 30-minute incubation with compound, then GST-c-RAF RBD, read-out: cRaf IC50. As for the experimental part:
Test Example 5: Procedure for RAS:RAF-RBD Binding Assay
The RAF-Ras binding domain (RBD) protein interaction assay utilizes Biotinylated KRAS G12C protein (SEQ ID NO: 3) and the GST-tagged Ras binding domain of c-RAF (residues 50-132) from Jena Biosciences). Compounds are added to KRAS and then after a 30-minute incubation time the RAF-RBD and detection antibodies are added. Small molecule inhibitors that block the interaction of c-RAF-RBD prevent generation of a TR-FRET signal.
Biotinylated KRAS G12C protein is diluted to 20 nM in assay buffer (20 mM HEPES pH 7.5, 150 mM sodium chloride, 10 mM magnesium chloride, and 0.01% Tween20).
Each test compound (10 mM stock in DMSO) is diluted in DMSO to make a 10-point, 3-fold dilution series in a 384-well low dead volume microplate (Labcyte, catalog #LP-0200). Once titrations are made, 50 nL of the diluted compounds is acoustically dispensed into 384-well plates (Corning, catalog #3820) using an Echo 655 (Labcyte).
Each well of the assay plate receives 5 μL of Biotinylated KRAS G12C assay solution and is incubated at room temperature for 30 minutes. Each well then receives 5 μL of 100 nM GST-c-RAF RBD protein and a 1:100 dilution of both anti-GST-d2 (Cisbio catalog #61GSTDLA) and Strepavidin-Tb cryptate (Cisbio catalog #610SATLA) in assay buffer and the plate is mixed and briefly centrifuged followed by a 60 minute incubation at room temperature.
The time-resolved fluorescence resonance energy transfer signal of both plates is measured on an Envision (PerkinElmer) plate reader: dichroic mirror=LANCE/DELFIA DUAL/Bias; Emission1=615 nm; Emission2=665 nm; delay time=[…]. The signal of each well is determined as the ratio of the emission at 665 nm to that at 615 nm. Percent effect of each well is determined after normalization to control wells containing DMSO (no effect) or a saturating concentration of inhibitor (max effect). The apparent effect as a function of compound concentration is fit to a four-parameter logistic equation.

Usually IC50 stands for the concentration at which inhibition is half-maximal.

Molecules are shown by their SMILES.

T1 sequence (P01116 with tags, fused parts or gaps isoform P01116-2 G12C/C51S/C80L/C118S): as above

Turning to `COC1CCN(C/C=C/C(=O)N2CCN(c3nc(OC[C@@]45CCCN4C[C@H](F)C5)nc4c3COC(c3c(F)cc(F)c5ccc(N)nc35)C4)C[C@@H]2CC#N)CC1` (single isomer, unassigned) [Example 23a], the IC50 in test [1] is 0.131 µM; in test [2] it was more than 50 µM.

With `COC1CCN(C/C=C/C(=O)N2CCN(c3nc(OC[C@@]45CCCN4C[C@H](F)C5)nc4c3COC(c3c(F)cc(F)c5ccc(N)nc35)C4)C[C@@H]2CC#N)CC1` (single isomer, unassigned) [Example 23b], the values for the IC50 in test [1] and in test [2] were 0.016 µM and 12.7 µM, respectively.

For the compound `C#Cc1cccc2cccc([C@@H]3Cc4nc(OC[C@@]56CCCN5C[C@H](F)C6)nc(N5CCN(C(=O)/C=C/CN6CCC(OC)CC6)[C@@H](CC#N)C5)c4CO3)c12` (single isomer, unassigned) [Example 25b], the IC50 in test [1] stood at 0.0016 µM; in test [2] it was 0.074 µM.

In the case of `COC1CCN(C/C=C/C(=O)N2CCN(c3nc(OC[C@@]45CCCN4C[C@H](F)C5)nc4c3COC(c3nc(N)cc(C)c3C(F)(F)F)C4)C[C@@H]2CC#N)CC1` (stereo partly drawn) [Example 22, 2-((2S)-4-(7-(6-amino-4-methyl-3-(trifluoromethyl)-pyridin-2-yl)-2-(((2R,7aS)-2-fluorotetrahydro-1H-pyr-rolizin-7a(5H)-yl)methoxy)-7,8-dihydro-5H-pyrano[4,3-d]pyrimidin-4-yl)-1-((E)-4-(4-methoxypiperidin-1-yl)-but-2-enoyl)piperazin-2-yl)-acetonitrile], the 50% inhibitory concentration (IC50) amounted to 0.0056 µM in test [1] and 0.122 µM in test [2].

In the case of `C#Cc1cccc2cccc(C3Cc4nc(OC[C@]5(CO)CC5(F)F)nc(N5CCN(C(=O)/C=C/CN6CCC(OC)CC6)[C@@H](CC#N)C5)c4CO3)c12` (stereo partly drawn) [Example 24, 2-((2S)-4-(2-(((R)-2,2-difluoro-1-(hydroxymethyl)cyclopropyl)methoxy)-7-(8-ethynylnaphthalen-1-yl)-7,8-dihydro-5H-pyrano[4,3-d]pyrimidin-4-yl)-1-((E)-4-(4-methoxypiperidin-1-yl)but-2-enoyl)piperazin-2-yl)acetonitrile], the IC50 is 0.055 µM in test [1] and more than 50 µM in test [2].

With `COC1CCN(C/C=C/C(=O)N2CCN(c3nc(OC[C@@]45CCCN4C[C@H](F)C5)nc4c3CCC3(CCCc5ccccc53)O4)C[C@@H]2CC#N)CC1` (stereo partly drawn) [Example 26, 2-((2S)-4-(2′-(((2R,7aS)-2-fluorotetrahydro-1H-pyrrolizin-7a(5H)-yl)methoxy)-3,4,5′,6′-tetrahydro-2H-spiro[naphthalene-1,7′-pyrano[2,3-d]pyrimidin]-4′-yl)-1-((E)-4-(4-methoxypiperidin-1-yl)but-2-enoyl)piperazin-2-yl)acetonitrile], the values for the IC50 in test [1] and in test [2] were 0.0808 µM and 48.8 µM, respectively.

The values above are taken from patent US20240417408A1, “SMALL MOLECULE INHIBITORS OF KRAS G12C MUTANT” (MERCK SHARP & DOHME CORP., priority 2021, published 2024).
